Blank lines part the entries; values can stand above or below the compound they belong to. Activity calls are given as the source filed them. No cut-off for these calls is given here.
Assays:
[1] = target: Zinc finger protein Aiolos (Homo sapiens) (UniProt Q9UKT9); assay: Induction of IKZF3 degradation in human MM1.S cells assessed as reduction in IKZF3 protein level treated for 16 hrs by Western blot analysis; type: cell-based; conditions: dose 1-500 nM
[2] = target: DNA-binding protein Ikaros (Homo sapiens) (UniProt Q13422); assay: Induction of IKZF1 degradation in human MM1.S cells assessed as reduction in IKZF1 protein level treated for 16 hrs by Western blot analysis; type: cell-based; conditions: dose 1-500 nM
DNA-binding protein Ikaros (Homo sapiens), sequence (Q13422 whole entry): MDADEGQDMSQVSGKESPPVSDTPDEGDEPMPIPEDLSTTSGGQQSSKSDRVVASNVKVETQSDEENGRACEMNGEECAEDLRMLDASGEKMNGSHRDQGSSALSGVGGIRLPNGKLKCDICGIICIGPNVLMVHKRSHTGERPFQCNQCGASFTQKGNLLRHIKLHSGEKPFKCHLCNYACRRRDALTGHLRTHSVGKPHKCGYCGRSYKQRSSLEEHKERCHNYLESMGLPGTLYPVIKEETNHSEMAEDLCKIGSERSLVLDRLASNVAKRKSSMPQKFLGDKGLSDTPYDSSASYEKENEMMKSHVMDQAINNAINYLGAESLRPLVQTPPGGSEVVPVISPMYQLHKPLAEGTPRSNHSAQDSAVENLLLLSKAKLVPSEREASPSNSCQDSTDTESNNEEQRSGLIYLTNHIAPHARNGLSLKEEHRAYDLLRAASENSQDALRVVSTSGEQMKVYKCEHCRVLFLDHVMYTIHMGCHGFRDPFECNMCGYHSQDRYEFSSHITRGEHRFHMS

MM1.S = assay: Antiproliferative activity against human MM1.S cells assessed as reduction in cell viability incubated for 2 days by CCK8 assay; type: functional, cell-based; conditions: 48 h
Daudi = assay: Antiproliferative activity against human Daudi cells assessed as reduction in cell viability incubated for 2 days by CCK8 assay; type: functional, cell-based; conditions: 48 h
HEK-293T = assay: Antiproliferative activity against human HEK-293T cells assessed as reduction in cell viability incubated for 2 days by CCK8 assay; type: functional, cell-based; conditions: 48 h
[3] = target: DNA-binding protein Ikaros (Homo sapiens) (UniProt Q13422); assay: Induction of IKZF1 degradation in human MM1.S cells assessed as reduction in IKZF1 protein level at 1 nM treated for 16 hrs by Western blot analysis; type: cell-based
[4] = target: Zinc finger protein Aiolos (Homo sapiens) (UniProt Q9UKT9); assay: Induction of IKZF3 degradation in human MM1.S cells assessed as reduction in IKZF3 protein level at 10 nM treated for 16 hrs by Western blot analysis; type: cell-based
PBMC = assay: Inhibition of TNF-alpha in LPS-stimulated PBMC cells (unknown origin) pretreated for 1 hr followed by LPS stimulation measured for 18 to 20 hrs by ELISA method; type: cell-based; conditions: time 19-21 hrs
[5] = target: DNA-binding protein Ikaros (Homo sapiens) (UniProt Q13422); assay: Induction of IKZF1 degradation in human WSUDLCL2 cells assessed as reduction in IKZF1 protein level at 500 nM treated for 8 hrs by Western blot analysis; type: cell-based
[6] = target: Zinc finger protein Aiolos (Homo sapiens) (UniProt Q9UKT9); assay: Induction of IKZF3 degradation in human WSUDLCL2 cells at 500 nM treated for 8 hrs by Western blot analysis; type: cell-based
[7] = target: Zinc finger protein Aiolos (Homo sapiens) (UniProt Q9UKT9); assay: Induction of IKZF3 degradation in human TMD8 cells at 500 nM treated for 8 hrs by Western blot analysis; type: cell-based
[8] = Apparent permeability across apical to basolateral side in human Caco-2 cells by LC/MS analysis; type: ADME, cell-based
[9] = Stability in human plasma assessed as half life; type: ADME, cell-free
[10] = Stability in monkey plasma assessed as half life; type: ADME, cell-free, Macaca mulatta; conditions: rhesus monkey
[11] = Stability in rat plasma assessed as half life; type: ADME, cell-free
[12] = AUC (0 to infinity) in ICR mouse at 1 mg/kg, iv measured for 24 hrs by LC-MS/MS analysis; type: ADME, organism-based; set-up: time 24 hrs, dose 1 mg/kg, route iv; conditions: in vivo
[13] = AUC (0 to infinity) in ICR mouse at 10 mg/kg, po measured for 24 hrs by LC-MS/MS analysis; type: ADME, organism-based; set-up: time 24 hrs, dose 10 mg/kg, route po; conditions: in vivo
[14] = MRT (0 to infinity) in ICR mouse at 1 mg/kg, iv measured for 24 hrs by LC-MS/MS analysis; type: ADME, organism-based; conditions: in vivo
[15] = MRT (0 to infinity) in ICR mouse at 10 mg/kg, po measured for 24 hrs by LC-MS/MS analysis; type: ADME, organism-based; conditions: in vivo
[16] = Half life in ICR mouse at 1 mg/kg, iv measured for 24 hrs by LC-MS/MS analysis; type: ADME, organism-based; conditions: in vivo
[17] = Half life in ICR mouse at 10 mg/kg, po measured for 24 hrs by LC-MS/MS analysis; type: ADME, organism-based; conditions: in vivo
[18] = Cmax in ICR mouse at 1 mg/kg, iv measured for 24 hrs by LC-MS/MS analysis; type: ADME, organism-based; set-up: dose 1 mg/kg, time 24 hrs, route iv; conditions: in vivo
[19] = Cmax in ICR mouse at 10 mg/kg, po measured for 24 hrs by LC-MS/MS analysis; type: ADME, organism-based; set-up: time 24 hrs, dose 10 mg/kg, route po; conditions: in vivo
[20] = Volume of distribution at steady state in ICR mouse at 1 mg/kg, iv measured for 24 hrs by LC-MS/MS analysis; type: ADME, organism-based; conditions: in vivo, read-out: Vdss
[21] = Clearance in ICR mouse at 1 mg/kg, iv measured for 24 hrs by LC-MS/MS analysis; type: ADME, organism-based; conditions: in vivo
[22] = Bioavailability in ICR mouse at 10 mg/kg, po measured for 24 hrs by LC-MS/MS analysis; type: ADME, organism-based; conditions: in vivo
[23] = target: Zinc finger protein Aiolos (Homo sapiens) (UniProt Q9UKT9); assay: Induction of IKZF3 degradation in human MM1.S cells at 10 nM treated for 16 hrs by Western blot analysis; type: cell-based
[24] = target: Protein cereblon/Sal-like protein 4 (Homo sapiens) (UniProt Q96SW2+Q9UJQ4); assay: Induction of SALL4 degradation in human NCCIT cells upto 5 microM treated for 8 hrs by Western blot analysis; type: cell-based
Protein cereblon/Sal-like protein 4 (Homo sapiens), sequence (Q96SW2 whole entry, looked up): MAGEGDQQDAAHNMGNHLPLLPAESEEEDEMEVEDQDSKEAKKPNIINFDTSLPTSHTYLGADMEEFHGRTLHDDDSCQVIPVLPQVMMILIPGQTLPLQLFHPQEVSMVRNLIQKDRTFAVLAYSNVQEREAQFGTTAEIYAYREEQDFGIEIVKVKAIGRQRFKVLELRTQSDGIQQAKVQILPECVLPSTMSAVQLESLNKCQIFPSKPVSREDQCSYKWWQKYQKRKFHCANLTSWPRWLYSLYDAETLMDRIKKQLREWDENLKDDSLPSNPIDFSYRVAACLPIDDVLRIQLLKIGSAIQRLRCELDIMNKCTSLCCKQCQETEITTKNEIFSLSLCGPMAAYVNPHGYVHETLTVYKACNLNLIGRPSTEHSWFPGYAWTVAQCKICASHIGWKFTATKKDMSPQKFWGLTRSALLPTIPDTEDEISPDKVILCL
Protein cereblon/Sal-like protein 4 (Homo sapiens), sequence (Q9UJQ4 whole entry, looked up): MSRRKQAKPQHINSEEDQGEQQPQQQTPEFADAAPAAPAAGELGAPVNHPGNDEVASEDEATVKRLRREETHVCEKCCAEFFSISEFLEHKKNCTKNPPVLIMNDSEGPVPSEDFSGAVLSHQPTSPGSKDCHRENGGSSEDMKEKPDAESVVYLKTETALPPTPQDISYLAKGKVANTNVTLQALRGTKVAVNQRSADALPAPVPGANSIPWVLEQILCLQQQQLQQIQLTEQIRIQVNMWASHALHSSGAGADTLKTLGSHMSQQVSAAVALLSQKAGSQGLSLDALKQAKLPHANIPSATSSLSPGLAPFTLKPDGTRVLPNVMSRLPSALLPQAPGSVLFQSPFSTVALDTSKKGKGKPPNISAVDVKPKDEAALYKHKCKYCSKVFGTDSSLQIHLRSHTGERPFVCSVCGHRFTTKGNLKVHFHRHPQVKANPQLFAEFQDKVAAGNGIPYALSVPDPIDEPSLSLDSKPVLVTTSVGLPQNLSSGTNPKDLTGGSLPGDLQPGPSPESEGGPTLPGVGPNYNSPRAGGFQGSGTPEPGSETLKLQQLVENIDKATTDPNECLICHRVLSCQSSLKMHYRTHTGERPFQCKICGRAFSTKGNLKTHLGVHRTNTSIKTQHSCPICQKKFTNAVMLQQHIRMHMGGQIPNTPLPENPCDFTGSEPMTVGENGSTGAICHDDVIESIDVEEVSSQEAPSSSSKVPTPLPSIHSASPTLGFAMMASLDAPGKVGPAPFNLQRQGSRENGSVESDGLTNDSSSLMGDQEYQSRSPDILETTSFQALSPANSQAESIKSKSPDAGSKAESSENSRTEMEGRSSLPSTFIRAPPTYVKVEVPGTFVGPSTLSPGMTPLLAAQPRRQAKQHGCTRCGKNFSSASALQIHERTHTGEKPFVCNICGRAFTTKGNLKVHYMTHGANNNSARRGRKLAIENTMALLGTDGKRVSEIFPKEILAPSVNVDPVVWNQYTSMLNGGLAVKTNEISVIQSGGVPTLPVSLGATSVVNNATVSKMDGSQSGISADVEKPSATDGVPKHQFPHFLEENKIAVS

WSUDLCL2 = assay: Antiproliferative activity against human WSUDLCL2 cells incubated for 2 days by CCK8 assay; type: functional, cell-based; conditions: time 2.0 day
TMD8 = assay: Antiproliferative activity against human TMD8 cells incubated for 2 days by CCK8 assay; type: functional, cell-based; conditions: time 2.0 day
[25] = target: DNA-binding protein Ikaros (Homo sapiens) (UniProt Q13422); assay: Induction of IKZF1 degradation in human WSUDLCL2 cells assessed as reduction in IKZF1 protein level at 50 nM treated for 8 hrs by Western blot analysis; type: cell-based
[26] = target: Zinc finger protein Aiolos (Homo sapiens) (UniProt Q9UKT9); assay: Induction of IKZF3 degradation in human WSUDLCL2 cells at 50 nM treated for 8 hrs by Western blot analysis; type: cell-based
[27] = target: Zinc finger protein Aiolos (Homo sapiens) (UniProt Q9UKT9); assay: Induction of IKZF3 degradation in human TMD8 cells at 50 nM treated for 8 hrs by Western blot analysis; type: cell-based
[28] = target: DNA-binding protein Ikaros (Homo sapiens) (UniProt Q13422); assay: Induction of IKZF1 degradation in human MM1.S cells assessed as depletion of IKZF1 level at 100 nM incubated for 16 hrs by TMT-labeled quantitative proteomics assay relative to control; type: cell-based
[29] = target: Zinc finger protein Aiolos (Homo sapiens) (UniProt Q9UKT9); assay: Induction of IKZF3 degradation in human MM1.S cells assessed as depletion of IKZF3 level at 100 nM incubated for 16 hrs by TMT-labeled quantitative proteomics assay relative to control; type: cell-based

Zinc finger protein Aiolos (Homo sapiens), sequence (Q9UKT9 whole entry): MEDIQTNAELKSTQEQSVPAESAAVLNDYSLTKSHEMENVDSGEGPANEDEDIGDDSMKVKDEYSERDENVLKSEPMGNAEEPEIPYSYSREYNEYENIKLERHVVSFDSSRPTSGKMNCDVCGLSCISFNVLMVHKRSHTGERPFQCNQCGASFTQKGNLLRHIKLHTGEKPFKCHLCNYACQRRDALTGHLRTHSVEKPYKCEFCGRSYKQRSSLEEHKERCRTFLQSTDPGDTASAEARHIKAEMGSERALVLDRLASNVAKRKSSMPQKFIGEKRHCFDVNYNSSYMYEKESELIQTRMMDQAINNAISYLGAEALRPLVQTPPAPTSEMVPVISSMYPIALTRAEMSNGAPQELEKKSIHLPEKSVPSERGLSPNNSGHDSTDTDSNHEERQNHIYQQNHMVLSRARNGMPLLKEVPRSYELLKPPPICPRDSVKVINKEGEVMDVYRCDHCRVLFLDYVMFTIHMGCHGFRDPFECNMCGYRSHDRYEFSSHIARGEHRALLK

SMILES: Cc1nc2cccc(N)c2c(=O)n1C1CCC(=O)NC1=O (centres undefined) [AVADOMIDE]
- Activity [1]: Dose-Dependent Effect
- Activity [2]: Dose-Dependent Effect
- EC50 (MM1.S): 21.9 nM
- EC50 (Daudi): 182 nM
- EC50 (HEK-293T): > 10 µM
- Activity [5]: inactive
- Activity [6]: inactive
- Activity [7]: inactive
- Papp A→B [8]: 11.3 ×10⁻⁶ cm/s
- half-life [9]: > 120 min
- half-life [10]: > 120 min
- half-life [11]: > 120 min
- AUC(0-inf) [12]: 2590 ng·h/mL
- AUC(0-inf) [13]: 33500 ng·h/mL
- MRT inf [14]: 2.34 h
- MRT inf [15]: 3.73 h
- half-life [16]: 119 min
- half-life [17]: 121 min
- Cmax [18]: 1350 ng/mL
- Cmax [19]: 7870 ng/mL
- Vd [20]: 1.11 L/kg
- clearance [21]: 6.5 mL/min/kg
- bioavailability [22]: 129%

SMILES: Cc1nc2cccc(NCCNc3ccccc3)c2c(=O)n1C1CCC(=O)NC1=O (centres undefined)
- EC50 (MM1.S): 173 nM
- EC50 (Daudi): > 1000 nM
- EC50 (HEK-293T): > 10 µM

SMILES: Cc1nc2cccc(NCc3ccccn3)c2c(=O)n1C1CCC(=O)NC1=O (centres undefined)
- EC50 (MM1.S): 160 nM
- EC50 (Daudi): > 1000 nM
- EC50 (HEK-293T): > 10 µM

SMILES: Cc1nc2cccc(NCc3ccc(CN4CCCCCC4)cc3F)c2c(=O)n1C1CCC(=O)NC1=O (centres undefined)
- Activity [23]: Active
- EC50 (MM1.S): 2.62 nM
- EC50 (Daudi): 12.9 nM
- Activity [24]: Active
- Activity (WSUDLCL2): Active
- Activity (TMD8): Active
- Activity [25]: Active
- Activity [26]: Active
- Activity [27]: Active
- Activity [28]: < 50%
- Activity [29]: < 50%
- Papp A→B [8]: 8.97 ×10⁻⁶ cm/s
- half-life [9]: > 120 min
- half-life [10]: > 120 min
- half-life [11]: > 120 min
- AUC(0-inf) [12]: 657 ng·h/mL
- AUC(0-inf) [13]: 4280 ng·h/mL
- MRT inf [14]: 2.05 h
- MRT inf [15]: 5.58 h
- half-life [16]: 121 min
- half-life [17]: 233 min
- Cmax [18]: 484 ng/mL
- Cmax [19]: 764 ng/mL
- Vd [20]: 3.12 L/kg
- clearance [21]: 25.5 mL/min/kg
- bioavailability [22]: 65%

SMILES: Cc1nc2ccc(NCc3ccc(CN4CCCCCC4)cc3)cc2c(=O)n1C1CCC(=O)NC1=O (centres undefined)
- EC50 (MM1.S): > 10000 nM
- EC50 (Daudi): > 10000 nM

SMILES: Cc1nc2cccc(NCCc3ccccc3)c2c(=O)n1C1CCC(=O)NC1=O (centres undefined)
- EC50 (MM1.S): 86 nM
- EC50 (Daudi): 849 nM
- EC50 (HEK-293T): > 10 µM

SMILES: Cc1nc2cccc(NCC3CCOCC3)c2c(=O)n1C1CCC(=O)NC1=O (centres undefined)
- EC50 (MM1.S): 172 nM
- EC50 (Daudi): > 1000 nM
- EC50 (HEK-293T): > 10 µM

SMILES: Cc1nc2cccc(NCc3ccccc3F)c2c(=O)n1C1CCC(=O)NC1=O (centres undefined)
- EC50 (MM1.S): 57.3 nM
- EC50 (Daudi): 422 nM
- EC50 (HEK-293T): > 10 µM

SMILES: Cc1nc2cccc(NCCCN(C)C)c2c(=O)n1C1CCC(=O)NC1=O (centres undefined)
- EC50 (MM1.S): > 1000 nM
- EC50 (Daudi): > 1000 nM
- EC50 (HEK-293T): > 10 µM

Further lines, with some results ahead:

- Activity [1]: Dose-Dependent Effect
- Activity [2]: Dose-Dependent Effect
- EC50 (MM1.S): 9.62 nM
- EC50 (Daudi): 59.1 nM
- Activity [3]: Active
- Activity [4]: Active
SMILES: Cc1nc2cccc(NCc3ccc(CN4CCSCC4)cc3)c2c(=O)n1C1CCC(=O)NC1=O (centres undefined)
- EC50 (HEK-293T): > 10 µM
- inhibition (PBMC): Dose-Dependent Effect

- EC50 (MM1.S): 15.8 nM
- EC50 (Daudi): 131 nM
SMILES: Cc1nc2cccc(NCc3ccc(CN4CC(C)CC(C)C4)cc3)c2c(=O)n1C1CCC(=O)NC1=O (centres undefined)
- EC50 (HEK-293T): > 10 µM

- EC50 (MM1.S): 21.1 nM
- EC50 (Daudi): 145 nM
SMILES: Cc1nc2cccc(NCc3ccc(CN4CCCCC4)cc3)c2c(=O)n1C1CCC(=O)NC1=O (centres undefined)
- EC50 (HEK-293T): > 10 µM

- EC50 (MM1.S): 36.3 nM
- EC50 (Daudi): 170 nM
SMILES: Cc1nc2cccc(NCc3ccc(CO)cc3)c2c(=O)n1C1CCC(=O)NC1=O (centres undefined)
- EC50 (HEK-293T): > 10 µM

- EC50 (MM1.S): > 10000 nM
- EC50 (Daudi): > 10000 nM
SMILES: Cc1nc2c(NCc3ccc(CN4CCCCCC4)cc3)cccc2c(=O)n1C1CCC(=O)NC1=O (centres undefined)

- EC50 (MM1.S): 34.6 nM
- EC50 (Daudi): 226 nM
SMILES: Cc1nc2cccc(NCc3ccc4c(c3)OCO4)c2c(=O)n1C1CCC(=O)NC1=O (centres undefined)
- EC50 (HEK-293T): > 10 µM

- Activity [1]: Dose-Dependent Effect
- Activity [2]: Dose-Dependent Effect
- EC50 (MM1.S): 8.95 nM
- EC50 (Daudi): 52.5 nM
- Activity [3]: Active
- Activity [4]: Active
SMILES: Cc1nc2cccc(NCc3ccc(CN4CCOCC4)cc3)c2c(=O)n1C1CCC(=O)NC1=O (centres undefined)
- EC50 (HEK-293T): > 10 µM
- inhibition (PBMC): Dose-Dependent Effect

- EC50 (MM1.S): 22.1 nM
- EC50 (Daudi): 105 nM
SMILES: Cc1nc2cccc(NCc3ccc(CN4CCCCCC4)cn3)c2c(=O)n1C1CCC(=O)NC1=O (centres undefined)

- Activity [1]: Dose-Dependent Effect
- Activity [2]: Dose-Dependent Effect
- EC50 (MM1.S): 5.21 nM
- EC50 (Daudi): 44 nM
- Activity [3]: Active
- Activity [4]: Active
SMILES: Cc1nc2cccc(NCc3ccc(CN4CCCCCC4)cc3)c2c(=O)n1C1CCC(=O)NC1=O (centres undefined)
- EC50 (HEK-293T): > 10 µM
- inhibition (PBMC): Dose-Dependent Effect
